Measured values taken from patent publication US6706664B1, “Benzoxazole compounds, process for the preparation thereof and herbicides” (UBE Industries, Ltd., priority 1999, dated 2004).

Assays:
Parameters in all cases: key: 0: normal development; 1: Less damaged; 2: Slightly damaged; 3: Moderately damaged; 4: Severely damaged; 5: All killed
corn [1] = experiment: Foliar spread test for upland field; format: in vivo; settings: foliar spray 500 ppm, 3 weeks, rank vs non-treated
Description: (§1) (0: normal development, 1: Less damaged, 2: Slightly damaged, 3: Moderately damaged, 4: Severely damaged, 5: All killed).
(§2) Wagner pots, each having an area of 1/5000 are, were packed with volcanic ash soil and then each seed of corn, soybean, cotton, wheat, solgum, sugar beat, Large crabgrass, barnyardgrass, green foxtail, blackgrass, annual bluegrass, common lambsquartes, livid amaranth, velvetleaf and morning glory was planted, covered with soil and grown in a glass house at an average temperature of […] for about 2 weeks.
(§3) Each wettable powder of the desired compounds (I) shown in Table 1 prepared in accordance with Example 2 was diluted to 500 ppm with water containing a surfactant (0.5%) and then uniformly sprayed on the above respective plants.
(§4) After these plants were controlled in a glass house at an average temperature of 25° C. for 3 weeks, the herbicidal effects thereof were investigated.
(§5) The herbicidal effects were evaluated according to the evaluation method described in the above (1).

solgum [2] = experiment: Foliar spread test for upland field; format: in vivo; settings: foliar spray 500 ppm, 3 weeks, rank vs non-treated
Description: as §1, §2, §3, §4, §5

sugar beat [3] = experiment: Foliar spread test for upland field; format: in vivo; settings: foliar spray 500 ppm, 3 weeks, rank vs non-treated
Description: as §1, §2, §3, §4, §5

wheat [4] = experiment: Foliar spread test for upland field; format: in vivo; settings: foliar spray 500 ppm, 3 weeks, rank vs non-treated
Description: as §1, §2, §3, §4, §5

common lambsquartes [5] = experiment: Foliar spread test for upland field; format: in vivo, Chenopodium album; settings: foliar spray 500 ppm, 3 weeks, rank vs non-treated
Description: as §1, §2, §3, §4, §5

livid amaranth [6] = experiment: Foliar spread test for upland field; format: in vivo, Amaranthus lividus; settings: foliar spray 500 ppm, 3 weeks, rank vs non-treated
Description: as §1, §2, §3, §4, §5

velvetleaf [7] = experiment: Foliar spread test for upland field; format: in vivo, Abutilon theophrasti; settings: foliar spray 500 ppm, 3 weeks, rank vs non-treated
Description: as §1, §2, §3, §4, §5

corn [8] = experiment: Soil treatment test for upland field; format: in vivo; settings: 500 g/ha, glass house 25° C., 3 weeks
Description: as §1
(§6) Wagner pots, each having an area of 1/5000 are, were packed with Ube soil (alluvial soil), and then each seed of corn, soybean, cotton, wheat, solgum, sugar beat, Large crabgrass, barnyardgrass, green foxtail, blackgrass, annual bluegrass, common lambsquartes, livid amaranth and velvetleaf were planted and covered with soil.
(§7) Each wettable powder of the desired compounds (I) shown in Table 1 prepared in accordance with Example 2 was diluted with water containing a surfactant (0.05%) and uniformly sprayed on the surface of each soil so that an effective concentration of the compound (I) in each herbicide became 500 g/ha. These plants were controlled in a glass house at an average temperature of 25° C. for 3 weeks, and then herbicidal effects thereof were investigated.
as §5

cotton = experiment: Soil treatment test for upland field; format: in vivo; settings: 500 g/ha, glass house 25° C., 3 weeks
Description: as §1, §6, §7, §5

solgum [9] = experiment: Soil treatment test for upland field; format: in vivo; settings: 500 g/ha, glass house 25° C., 3 weeks
Description: as §1, §6, §7, §5

soybean = experiment: Soil treatment test for upland field; format: in vivo; settings: 500 g/ha, glass house 25° C., 3 weeks
Description: as §1, §6, §7, §5

sugar beat [10] = experiment: Soil treatment test for upland field; format: in vivo; settings: 500 g/ha, glass house 25° C., 3 weeks
Description: as §1, §6, §7, §5

wheat [11] = experiment: Soil treatment test for upland field; format: in vivo; settings: 500 g/ha, glass house 25° C., 3 weeks
Description: as §1, §6, §7, §5

Large crabgrass = experiment: Soil treatment test for upland field; format: in vivo, Digitaria adscendens; settings: 500 g/ha, glass house 25° C., 3 weeks
Description: as §1, §6, §7, §5

green foxtail = experiment: Soil treatment test for upland field; format: in vivo, Setaria viridis; settings: 500 g/ha, glass house 25° C., 3 weeks
Description: as §1, §6, §7, §5

annual bluegrass = experiment: Soil treatment test for upland field; format: in vivo, Poa annua; settings: 500 g/ha, glass house 25° C., 3 weeks
Description: as §1, §6, §7, §5

common lambsquartes [12] = experiment: Soil treatment test for upland field; format: in vivo, Chenopodium album; settings: 500 g/ha, glass house 25° C., 3 weeks
Description: as §1, §6, §7, §5

livid amaranth [13] = experiment: Soil treatment test for upland field; format: in vivo, Amaranthus lividus; settings: 500 g/ha, glass house 25° C., 3 weeks
Description: as §1, §6, §7, §5

velvetleaf [14] = experiment: Soil treatment test for upland field; format: in vivo, Abutilon theophrasti; settings: 500 g/ha, glass house 25° C., 3 weeks
Description: as §1, §6, §7, §5

young rice plant = experiment: Herbicidal test for paddy field; format: in vivo; settings: paddy field pot, 500 g/ha dropwise at 1.5 leaf stage of barnyardgrass, 3 weeks, rank vs non-treated
Method: (§8) Wagner pots, each having an area of 1/5000 are, were packed with Ube soil (alluvial soil) and planted with seeds or tubers of young rice plant, barnyardgrass, bulrush, flat sedge and monochoria. Then, the pots were filled with water to a depth of 3 cm.
(§9) Each wettable powder of the desired compounds (I) shown in Table 1 prepared in accordance with Example 2 was diluted with water containing a surfactant (0.05%) and subjected to dropwise addition treatment by using pipet so that an effective concentration of the compound (I) in each herbicide became 500 g/ha at 1.5 leaf stage of barnyardgrass.
(§10) These plants were controlled in a glass house at an average temperature of 25° C. for 3 weeks, and then herbicidal effects thereof were investigated.
(§11) The herbicidal effects are evaluated according to the following 6 ranks as compared with non-treated district.
as §1

barnyardgrass [15] = experiment: Herbicidal test for paddy field; format: in vivo, Echinochloa crusgalli; settings: paddy field pot, 500 g/ha dropwise at 1.5 leaf stage of barnyardgrass, 3 weeks, rank vs non-treated
Method: as §8, §9, §10, §11, §1

monochoria = experiment: Herbicidal test for paddy field; format: in vivo, Monochoria vaginalis; settings: paddy field pot, 500 g/ha dropwise at 1.5 leaf stage of barnyardgrass, 3 weeks, rank vs non-treated
Method: as §8, §9, §10, §11, §1

bulrush = experiment: Herbicidal test for paddy field; format: in vivo, Scrips juncoides; settings: paddy field pot, 500 g/ha dropwise at 1.5 leaf stage of barnyardgrass, 3 weeks, rank vs non-treated
Method: as §8, §9, §10, §11, §1

blackgrass = experiment: Soil treatment test for upland field; format: in vivo, Alopecurus aegualis; settings: 500 g/ha, glass house 25° C., 3 weeks
Description: as §1, §6, §7, §5

barnyardgrass [16] = experiment: Soil treatment test for upland field; format: in vivo, Echinochloa crusgalli; settings: 500 g/ha, glass house 25° C., 3 weeks
Description: as §1, §6, §7, §5

| Compound | Effects Corn (corn [1]) | Effects Solgum (solgum [2]) | Effects Sugar beat (sugar beat [3]) | Effects Wheat (wheat [4]) | Effects Common lambsquarters (common lambsquartes [5]) | Effects Livid amaranth (livid amaranth [6]) | Effects Velvetleaf (velvetleaf [7]) | Effects Corn (corn [8]) | Effects Cotton (cotton) | Effects Solgum (solgum [9]) | Effects Soybean (soybean) | Effects Sugar beat (sugar beat [10]) | Effects Wheat (wheat [11]) | Effects Large crabgrass (Large crabgrass) | Effects Green foxtail (green foxtail) | Effects Annual bluegrass (annual bluegrass) | Effects Common lambsquarters (common lambsquartes [12]) | Effects Livid amaranth (livid amaranth [13]) | Effects Velvetleaf (velvetleaf [14]) | Effect Young rice plant (young rice plant) | further results |
| --- | --- | --- | --- | --- | --- | --- | --- | --- | --- | --- | --- | --- | --- | --- | --- | --- | --- | --- | --- | --- | --- |
| CCC(Oc1cccc(C(F)(F)F)c1)c1nc2cc(S(C)(=O)=O)c(C)cc2o1 (stereo not shown) [Compound 490] | 1 | 1 | 4 | 1 | 5 | 4 | 4 | – | – | – | – | – | – | – | – | – | – | – | – | – | – |
| CCCC(Oc1cccc(C(F)(F)F)c1)c1nc2cc(S(C)(=O)=O)c(C)cc2o1 (stereo not shown) [Compound 489] | 1 | 1 | 5 | 1 | 5 | 5 | 3 | 1 | 0 | 0 | 0 | 5 | 0 | 2 | 4 | 5 | 4 | 5 | 3 | – | – |
| CCCC(Oc1cccc(C#N)c1)c1nc2cc(F)c(Cl)cc2o1 (stereo not shown) [Compound 501] | – | – | – | – | – | – | – | – | – | – | – | – | – | – | – | – | – | – | – | 1 | Effect Barnyardgrass (barnyardgrass [15]): 3; Effect Monochoria (monochoria): 3 |
| CCCCC(Oc1ccc(F)c(C(F)(F)F)c1)c1nc2cc(Cl)ccc2o1 (stereo not shown) [Compound 476] | 1 | 0 | 5 | 1 | 5 | 5 | 2 | 0 | 0 | 0 | 0 | 3 | 0 | 3 | 4 | 4 | 3 | 5 | 2 | – | – |
| CCCC(Oc1ccc(F)c(C(F)(F)F)c1)c1nc2cc(S(C)(=O)=O)ccc2o1 (stereo not shown) [Compound 217] | – | – | – | – | – | – | – | 0 | 1 | 0 | 0 | 5 | 0 | 5 | 5 | 4 | 5 | 5 | 5 | 1 | Effect Bulrush (bulrush): 2; Effect Monochoria (monochoria): 4; Effects Blackgrass (blackgrass): 2 |
| CCC(Oc1ccc(Cl)c(C(F)(F)F)c1)c1nc2cc([N+](=O)[O-])ccc2o1 (stereo not shown) [Compound 432] | – | – | – | – | – | – | – | 0 | 0 | 2 | 0 | 5 | 0 | 5 | 5 | 5 | 3 | 5 | 2 | – | Effects Barnyardgrass (barnyardgrass [16]): 4; Effects Blackgrass (blackgrass): 3 |
| CCC(Oc1cccc(C#N)c1)c1nc2cc(Cl)ccc2o1 (stereo not shown) [Compound 353] | – | – | – | – | – | – | – | – | – | – | – | – | – | – | – | – | – | – | – | 0 | Effect Barnyardgrass (barnyardgrass [15]): 3; Effect Bulrush (bulrush): 4; Effect Monochoria (monochoria): 5 |
